Assay results published in ChEMBL document CHEMBL1201862, “PubChem BioAssay data set” (2004).
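Values below derive from 48-hour exposures of cells grown in 96-well plates, with endpoints linearly interpolated between the two concentrations bracketing the appropriate inhibition level. GI50: concentration for 50% inhibition of growth.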 Active and inactive are the calls of the source. No stated cut-off is given here; in the data, active = GI50 up to about 1.1 µM and inactive = higher.

How the values were obtained:
Experiment in all cases: growth of human tumour cells (NCI), 48 h
786-0 = test system: 786-0
A549 = test system: A549
ACHN = test system: ACHN
BT-549 = test system: BT-549
CAKI-1 = test system: CAKI-1
COLO 205 = test system: COLO 205
EKVX = test system: EKVX
HCC 2998 = test system: HCC 2998
HCT-116 = test system: HCT-116
HCT-15 = test system: HCT-15
HL-60 = test system: HL-60
HOP-62 = test system: HOP-62
HOP-92 = test system: HOP-92
HT-29 = test system: HT-29
Hs-578T = test system: Hs-578T
IGROV-1 = test system: IGROV-1
K562 = test system: K562
KM12 = test system: KM12
LOX IMVI = test system: LOX IMVI
M14 = test system: M14
MCF7 = test system: MCF7
MDA-MB-231 = test system: MDA-MB-231
MDA-MB-435 = test system: MDA-MB-435
MDA-N = test system: MDA-N
MOLT-4 = test system: MOLT-4
Malme-3M = test system: Malme-3M
NCI-H226 = test system: NCI-H226
NCI-H460 = test system: NCI-H460
NCI-H522 = test system: NCI-H522
NCI/ADR-RES = test system: NCI/ADR-RES
OVCAR-4 = test system: OVCAR-4
OVCAR-5 = test system: OVCAR-5
OVCAR-8 = test system: OVCAR-8
PC-3 = test system: PC-3
RPMI-8226 = test system: RPMI-8226
RXF 393 = test system: RXF 393
SF-268 = test system: SF-268
SF-295 = test system: SF-295
SF-539 = test system: SF-539
SK-MEL-28 = test system: SK-MEL-28
SK-MEL-2 = test system: SK-MEL-2
SK-MEL-5 = test system: SK-MEL-5
SK-OV-3 = test system: SK-OV-3
SN12C = test system: SN12C
SNB-19 = test system: SNB-19
SR = test system: SR
SW-620 = test system: SW-620
TK-10 = test system: TK-10
U-251 = test system: U-251
UACC-257 = test system: UACC-257
UACC-62 = test system: UACC-62
UO-31 = test system: UO-31
NCI-H23 = test system: NCI-H23
CCRF-CEM = test system: CCRF-CEM
DU-145 = test system: DU-145
OVCAR-3 = test system: OVCAR-3
SNB-75 = test system: SNB-75

Measured: GI50

Nc1ccc(-c2cssc2=S)cc1
active: RPMI-8226 0.836 µM
inactive: 786-0 49 µM | A549 50.6 µM | ACHN 38.1 µM | BT-549 36.1 µM | CAKI-1 37.9 µM | COLO 205 42.2 µM | EKVX 41.6 µM | HCC 2998 29.2 µM | HCT-116 42 µM | HL-60 18.6 µM | HOP-62 42.1 µM | HOP-92 56.2 µM | HT-29 51.9 µM | Hs-578T 36.3 µM | IGROV-1 50.7 µM | K562 3.21 µM | KM12 42 µM | LOX IMVI 41.1 µM | M14 75.7 µM | MCF7 52.1 µM | MDA-MB-231 39.3 µM | MDA-MB-435 35.1 µM | MDA-N 30.4 µM | MOLT-4 1.17 µM | Malme-3M 34 µM | NCI-H226 56.5 µM | NCI-H460 33.9 µM | NCI-H522 26.9 µM | NCI/ADR-RES 41.9 µM | OVCAR-4 49.1 µM | OVCAR-5 > 100 µM | OVCAR-8 45.7 µM | PC-3 41.9 µM | RXF 393 29.8 µM | SF-268 42.7 µM | SF-295 33.3 µM | SF-539 52.8 µM | SK-MEL-28 49.7 µM | SK-MEL-2 27.1 µM | SK-MEL-5 32.8 µM | SK-OV-3 44.6 µM | SN12C 31.1 µM | SNB-19 > 100 µM | SR 2.64 µM | SW-620 54.8 µM | TK-10 40.6 µM | U-251 40.7 µM | UACC-257 59.6 µM | UACC-62 26.9 µM | UO-31 35.9 µM
45.5 µM: HCT-15

O=S(=O)(O)c1ccc2c(/N=N/c3ccccc3)c(O)ccc2c1
inactive: A549 > 100 µM | ACHN > 100 µM | HOP-62 > 100 µM | HT-29 > 100 µM | Hs-578T > 100 µM | K562 > 100 µM | LOX IMVI > 100 µM | MDA-MB-231 > 100 µM | MDA-N > 100 µM | Malme-3M > 100 µM | NCI-H226 > 100 µM | NCI-H23 > 100 µM | NCI-H522 > 100 µM | NCI/ADR-RES > 100 µM | OVCAR-4 > 100 µM | PC-3 > 100 µM | RPMI-8226 > 100 µM | SF-268 > 100 µM | SF-295 > 100 µM | TK-10 > 100 µM | UACC-62 > 100 µM

CS(=O)(=O)c1nc(-c2cc3c(c(S(C)(=O)=O)n2)CCC3)cc2c1CCCCC2
active: UO-31 0.834 µM
> 100 µM: HCT-15
inactive: 786-0 70.8 µM | A549 > 100 µM | ACHN 45 µM | BT-549 20.5 µM | CAKI-1 21 µM | CCRF-CEM > 100 µM | COLO 205 > 100 µM | DU-145 > 100 µM | EKVX > 100 µM | HCC 2998 > 100 µM | HCT-116 > 100 µM | HL-60 > 100 µM | HOP-62 16.9 µM | HT-29 > 100 µM | Hs-578T 9.08 µM | IGROV-1 20.1 µM | K562 > 100 µM | KM12 > 100 µM | LOX IMVI > 100 µM | M14 > 100 µM | MDA-MB-231 54.7 µM | MDA-MB-435 > 100 µM | MDA-N > 100 µM | MOLT-4 > 100 µM | Malme-3M 34.5 µM | NCI-H226 56.6 µM | NCI-H23 41.4 µM | NCI-H522 15.2 µM | NCI/ADR-RES 49.5 µM | OVCAR-3 > 100 µM | OVCAR-4 > 100 µM | OVCAR-5 > 100 µM | OVCAR-8 66.5 µM | PC-3 > 100 µM | RPMI-8226 > 100 µM | RXF 393 18.5 µM | SF-268 14.8 µM | SF-295 31.7 µM | SK-MEL-28 > 100 µM | SK-MEL-2 24.8 µM | SK-MEL-5 > 100 µM | SK-OV-3 11.9 µM | SN12C > 100 µM | SNB-19 34.4 µM | SNB-75 6.37 µM | SW-620 > 100 µM | TK-10 42.7 µM | U-251 41.9 µM | UACC-257 > 100 µM | UACC-62 22.9 µM
